Publication PMC5392334, “Discovery and characterization of a novel irreversible EGFR mutants selective and potent kinase inhibitor CHMFL-EGFR-26 with a distinct binding mode” (Oncotarget, 2017)

Key:
[1] = biological target: T1, AKT1 (Homo sapiens, UniProt P31749); experiment: KinomeScan; assay type: binding; conditions: read-out: % control
T1 construct: purchased DiscoveRx KINOMEscan

[2] = biological target: T2, LRRK2(G2019S) (Homo sapiens, UniProt Q5S007, G2019S); experiment: KinomeScan; assay type: binding; conditions: read-out: % control
T2 construct: purchased DiscoveRx KINOMEscan

[3] = tested on: FLT3(ITD,D835V); experiment: KinomeScan; assay type: binding; conditions: 1μM
[4] = biological target: T3, MST1R (Homo sapiens, UniProt Q04912); experiment: KinomeScan; assay type: binding; conditions: read-out: % control
T3 construct: purchased DiscoveRx KINOMEscan

[5] = biological target: T4, TLK2 (Homo sapiens, UniProt Q86UE8); experiment: KinomeScan; assay type: binding; conditions: read-out: % control
T4 construct: purchased DiscoveRx KINOMEscan

[6] = biological target: T5, YANK1 (Homo sapiens, UniProt Q8WU08); experiment: KinomeScan; assay type: binding; conditions: read-out: % control
T5 construct: purchased DiscoveRx KINOMEscan

[7] = tested on: EGFR Y1068 phosphorylation in BaF3-TEL-EGFR cells; experiment: EGFR Y1068 auto-phosphorylation in transformed BaF3 cells; conditions: Mus musculus, BaF3, 4 h, read-out: EC50, phosphorylation of EGFR Y1068
[8] = biological target: T6, IGF1R (Homo sapiens, UniProt P08069); experiment: KinomeScan; assay type: binding; conditions: read-out: % control
T6 construct: purchased DiscoveRx KINOMEscan

[9] = biological target: T7, PRP4 (Homo sapiens, UniProt Q13523); experiment: KinomeScan; assay type: binding; conditions: read-out: % control
T7 construct: purchased DiscoveRx KINOMEscan

[10] = biological target: T8, ADCK4 (Homo sapiens, UniProt Q96D53); experiment: KinomeScan; assay type: binding; conditions: read-out: % control
T8 construct: purchased DiscoveRx KINOMEscan

[11] = biological target: T9, TEC (Homo sapiens, UniProt P42680); experiment: KinomeScan; assay type: binding; conditions: read-out: % control
T9 construct: purchased DiscoveRx KINOMEscan

[12] = biological target: T10, FGFR3 (Homo sapiens, UniProt P22607); experiment: KinomeScan; assay type: binding; conditions: read-out: % control
T10 construct: purchased DiscoveRx KINOMEscan

[13] = tested on: 468 kinases/mutants; experiment: KinomeScan selectivity profile (panel); assay type: binding; conditions: 1μM
Source text: (§1) In order to better understand CHMFL-EGFR-26's selectivity, we then tested it in DiscoveRx's KinomeScan™ assay. […] Given the fact that KinomeScan™ is a binding assay and sometimes cannot truly reflect the compound inhibitory activity, we then used Invitrogen SelectScreen® assay to test these potential off-targets (Supplementary Table 2). […] This was not surprising because EGFR, JAK3, HER2, HER4 and TEC family kinases (BTK, BLK and BMX) all share a similar cysteine residue at the identical position analogous to Cys 797 in EGFR in the hinge binding area.

[14] = biological target: T11, PAK1 (Homo sapiens, UniProt Q13153); experiment: KinomeScan; assay type: binding; conditions: read-out: % control
T11 construct: purchased DiscoveRx KINOMEscan

[15] = biological target: T12, BIKE (Homo sapiens, UniProt Q9NSY1); experiment: KinomeScan; assay type: binding; conditions: read-out: % control
T12 construct: purchased DiscoveRx KINOMEscan

[16] = biological target: T13, BMX (Homo sapiens, UniProt P51813); experiment: KinomeScan; assay type: binding; conditions: read-out: % control
T13 construct: purchased Invitrogen (SelectScreen service)

[17] = biological target: T14, PIP5K1A (Homo sapiens, UniProt Q99755); experiment: KinomeScan; assay type: binding; conditions: read-out: % control
T14 construct: purchased DiscoveRx KINOMEscan

[18] = biological target: T15, EPHA7 (Homo sapiens, UniProt Q15375); experiment: KinomeScan; assay type: binding; conditions: read-out: % control
T15 construct: purchased DiscoveRx KINOMEscan

[19] = biological target: T16, ABL1-phosphorylated (Homo sapiens, UniProt P00519); experiment: KinomeScan; assay type: binding; conditions: read-out: % control
T16 construct: purchased DiscoveRx KINOMEscan

[20] = biological target: T17, TESK1 (Homo sapiens, UniProt Q15569); experiment: KinomeScan; assay type: binding; conditions: read-out: % control
T17 construct: purchased DiscoveRx KINOMEscan

[21] = biological target: T18, CLK4 (Homo sapiens, UniProt Q9HAZ1); experiment: KinomeScan; assay type: binding; conditions: read-out: % control
T18 construct: purchased DiscoveRx KINOMEscan

[22] = biological target: T19, ERK2 (Homo sapiens, UniProt P28482); experiment: KinomeScan; assay type: binding; conditions: read-out: % control
T19 construct: purchased DiscoveRx KINOMEscan

[23] = biological target: T20, CAMK4 (Homo sapiens, UniProt Q16566); experiment: KinomeScan; assay type: binding; conditions: read-out: % control
T20 construct: purchased DiscoveRx KINOMEscan

[24] = biological target: T21, PIP5K1C (Homo sapiens, UniProt O60331); experiment: KinomeScan; assay type: binding; conditions: read-out: % control
T21 construct: purchased DiscoveRx KINOMEscan

[25] = biological target: T22, YES (Homo sapiens, UniProt P07947); experiment: KinomeScan; assay type: binding; conditions: read-out: % control
T22 construct: purchased DiscoveRx KINOMEscan

[26] = biological target: T23, DMPK2 (Homo sapiens, UniProt Q6DT37); experiment: KinomeScan; assay type: binding; conditions: read-out: % control
T23 construct: purchased DiscoveRx KINOMEscan

[27] = biological target: T24, EGFR(L858R,T790M) (Homo sapiens, UniProt P00533, L858R/T790M); experiment: KinomeScan; assay type: binding; conditions: read-out: % control
T24 construct: purchased DiscoveRx KINOMEscan

[28] = biological target: T25, PRKCH (Homo sapiens, UniProt P24723); experiment: KinomeScan; assay type: binding; conditions: read-out: % control
T25 construct: purchased DiscoveRx KINOMEscan

[29] = biological target: T26, ERBB3 (Homo sapiens, UniProt P21860); experiment: KinomeScan; assay type: binding; conditions: read-out: % control
T26 construct: purchased DiscoveRx KINOMEscan

[30] = biological target: T27, JAK3 (Homo sapiens, UniProt P52333); experiment: Invitrogen SelectScreen biochemical assay
T27 construct: purchased Invitrogen (SelectScreen service)
Source text: as §1
(§2) www.impactjournals.com/oncotarget/ Oncotarget, Supplementary Materials 2017
(§3) KinomeScan Profiling by invitrogen SelectScreen® assay
(§4) (1 picture or pasted object on this page, not shown here)

[31] = biological target: T13, BMX; experiment: Invitrogen SelectScreen biochemical assay
Source text: as §1, §2, §3, §4

[32] = biological target: T28, MEK1 (Homo sapiens, UniProt Q02750); experiment: Invitrogen SelectScreen biochemical assay
T28 construct: purchased Invitrogen (SelectScreen service)
Source text: as §1, §2, §3, §4

[33] = biological target: T29, BTK (Homo sapiens, UniProt Q06187); experiment: Invitrogen SelectScreen biochemical assay
T29 construct: purchased Invitrogen (SelectScreen service)
Source text: as §1, §2, §3, §4

[34] = biological target: T30, BLK (Homo sapiens, UniProt P51451); experiment: Invitrogen SelectScreen biochemical assay
T30 construct: purchased Invitrogen (SelectScreen service)
Source text: as §1, §2, §3, §4

[35] = biological target: T31, HER4 (Homo sapiens, UniProt Q15303); experiment: Invitrogen SelectScreen biochemical assay
T31 construct: purchased Invitrogen (SelectScreen service)
Source text: as §1, §2, §3, §4

[36] = biological target: T32, HER2 (Homo sapiens, UniProt P04626); experiment: Invitrogen SelectScreen biochemical assay
T32 construct: purchased Invitrogen (SelectScreen service)
Source text: as §1, §2, §3, §4

[37] = biological target: T33, PDGFRA (Homo sapiens, UniProt P16234); experiment: KinomeScan; assay type: binding; conditions: read-out: % control
T33 construct: purchased DiscoveRx KINOMEscan

T13 sequence (P51813 whole entry): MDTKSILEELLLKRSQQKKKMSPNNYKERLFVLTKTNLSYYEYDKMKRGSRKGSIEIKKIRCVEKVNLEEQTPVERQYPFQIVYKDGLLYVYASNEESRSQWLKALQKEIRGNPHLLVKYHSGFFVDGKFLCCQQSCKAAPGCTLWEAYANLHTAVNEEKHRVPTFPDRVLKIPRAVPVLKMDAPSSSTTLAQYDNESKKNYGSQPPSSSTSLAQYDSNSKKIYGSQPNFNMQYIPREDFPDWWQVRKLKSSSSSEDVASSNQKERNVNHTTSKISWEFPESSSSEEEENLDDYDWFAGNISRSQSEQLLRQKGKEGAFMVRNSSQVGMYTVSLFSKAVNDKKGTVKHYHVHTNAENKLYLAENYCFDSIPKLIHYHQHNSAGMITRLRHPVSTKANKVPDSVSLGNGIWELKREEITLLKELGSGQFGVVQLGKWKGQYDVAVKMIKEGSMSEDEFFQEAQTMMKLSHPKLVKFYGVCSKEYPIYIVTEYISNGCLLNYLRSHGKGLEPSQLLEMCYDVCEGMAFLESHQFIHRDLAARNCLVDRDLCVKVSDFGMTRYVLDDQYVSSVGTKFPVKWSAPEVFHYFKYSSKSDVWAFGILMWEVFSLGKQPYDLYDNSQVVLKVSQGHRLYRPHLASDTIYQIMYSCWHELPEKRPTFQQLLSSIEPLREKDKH
T27 sequence (P52333 whole entry): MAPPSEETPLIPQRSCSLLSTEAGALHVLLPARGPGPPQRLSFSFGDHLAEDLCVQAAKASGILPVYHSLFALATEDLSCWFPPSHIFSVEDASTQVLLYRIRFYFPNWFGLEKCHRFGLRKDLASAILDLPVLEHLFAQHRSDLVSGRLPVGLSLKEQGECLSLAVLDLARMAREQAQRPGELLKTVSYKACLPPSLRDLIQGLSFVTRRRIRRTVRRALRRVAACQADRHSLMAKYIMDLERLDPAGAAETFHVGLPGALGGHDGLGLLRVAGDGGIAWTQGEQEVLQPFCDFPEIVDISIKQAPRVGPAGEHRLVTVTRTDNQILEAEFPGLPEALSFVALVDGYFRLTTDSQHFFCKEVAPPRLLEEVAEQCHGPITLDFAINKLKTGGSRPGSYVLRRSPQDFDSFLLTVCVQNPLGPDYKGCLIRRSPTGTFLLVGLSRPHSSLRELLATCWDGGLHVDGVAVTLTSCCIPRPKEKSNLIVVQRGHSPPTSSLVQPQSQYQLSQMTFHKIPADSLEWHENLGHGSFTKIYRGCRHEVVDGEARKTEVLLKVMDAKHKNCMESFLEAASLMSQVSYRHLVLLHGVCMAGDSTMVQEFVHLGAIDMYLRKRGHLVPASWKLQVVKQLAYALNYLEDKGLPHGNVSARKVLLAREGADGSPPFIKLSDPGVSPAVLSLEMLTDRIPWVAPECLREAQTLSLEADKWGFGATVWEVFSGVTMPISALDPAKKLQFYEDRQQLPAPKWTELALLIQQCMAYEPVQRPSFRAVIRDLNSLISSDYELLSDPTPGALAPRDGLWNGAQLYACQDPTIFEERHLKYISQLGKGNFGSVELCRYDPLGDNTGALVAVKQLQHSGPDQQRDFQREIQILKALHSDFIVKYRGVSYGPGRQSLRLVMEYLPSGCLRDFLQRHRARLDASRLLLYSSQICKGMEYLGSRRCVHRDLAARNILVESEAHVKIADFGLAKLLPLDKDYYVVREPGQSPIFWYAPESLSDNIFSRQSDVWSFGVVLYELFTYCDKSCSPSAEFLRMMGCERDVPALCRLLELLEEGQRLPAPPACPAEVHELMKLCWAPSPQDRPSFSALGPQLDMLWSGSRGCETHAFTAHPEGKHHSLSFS
T19 sequence (P28482 whole entry): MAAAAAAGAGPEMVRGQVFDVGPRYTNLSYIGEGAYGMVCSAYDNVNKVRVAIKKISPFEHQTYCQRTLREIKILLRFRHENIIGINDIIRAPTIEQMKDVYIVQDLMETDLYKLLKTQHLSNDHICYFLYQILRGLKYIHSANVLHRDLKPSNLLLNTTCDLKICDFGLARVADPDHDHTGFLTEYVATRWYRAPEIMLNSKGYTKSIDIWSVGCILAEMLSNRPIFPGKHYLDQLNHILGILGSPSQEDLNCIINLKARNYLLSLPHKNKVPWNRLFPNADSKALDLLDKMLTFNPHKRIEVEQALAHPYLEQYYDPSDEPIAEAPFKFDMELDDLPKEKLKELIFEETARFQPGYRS
T14 sequence (Q99755 whole entry): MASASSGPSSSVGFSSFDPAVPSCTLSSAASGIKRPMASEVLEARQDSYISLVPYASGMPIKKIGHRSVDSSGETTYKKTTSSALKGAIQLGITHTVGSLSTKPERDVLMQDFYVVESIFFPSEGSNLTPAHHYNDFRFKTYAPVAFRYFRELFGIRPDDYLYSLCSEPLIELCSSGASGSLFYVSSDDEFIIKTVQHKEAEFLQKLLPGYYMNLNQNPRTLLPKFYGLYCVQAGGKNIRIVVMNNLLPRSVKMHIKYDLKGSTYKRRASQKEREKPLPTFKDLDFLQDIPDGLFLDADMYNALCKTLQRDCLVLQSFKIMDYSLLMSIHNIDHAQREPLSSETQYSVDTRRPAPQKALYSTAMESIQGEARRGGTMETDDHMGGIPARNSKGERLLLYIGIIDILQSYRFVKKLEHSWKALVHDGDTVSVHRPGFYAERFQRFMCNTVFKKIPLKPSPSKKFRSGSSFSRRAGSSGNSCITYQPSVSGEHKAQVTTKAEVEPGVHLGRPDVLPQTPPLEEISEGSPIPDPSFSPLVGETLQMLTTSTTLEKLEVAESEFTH
T16 sequence (P00519 whole entry): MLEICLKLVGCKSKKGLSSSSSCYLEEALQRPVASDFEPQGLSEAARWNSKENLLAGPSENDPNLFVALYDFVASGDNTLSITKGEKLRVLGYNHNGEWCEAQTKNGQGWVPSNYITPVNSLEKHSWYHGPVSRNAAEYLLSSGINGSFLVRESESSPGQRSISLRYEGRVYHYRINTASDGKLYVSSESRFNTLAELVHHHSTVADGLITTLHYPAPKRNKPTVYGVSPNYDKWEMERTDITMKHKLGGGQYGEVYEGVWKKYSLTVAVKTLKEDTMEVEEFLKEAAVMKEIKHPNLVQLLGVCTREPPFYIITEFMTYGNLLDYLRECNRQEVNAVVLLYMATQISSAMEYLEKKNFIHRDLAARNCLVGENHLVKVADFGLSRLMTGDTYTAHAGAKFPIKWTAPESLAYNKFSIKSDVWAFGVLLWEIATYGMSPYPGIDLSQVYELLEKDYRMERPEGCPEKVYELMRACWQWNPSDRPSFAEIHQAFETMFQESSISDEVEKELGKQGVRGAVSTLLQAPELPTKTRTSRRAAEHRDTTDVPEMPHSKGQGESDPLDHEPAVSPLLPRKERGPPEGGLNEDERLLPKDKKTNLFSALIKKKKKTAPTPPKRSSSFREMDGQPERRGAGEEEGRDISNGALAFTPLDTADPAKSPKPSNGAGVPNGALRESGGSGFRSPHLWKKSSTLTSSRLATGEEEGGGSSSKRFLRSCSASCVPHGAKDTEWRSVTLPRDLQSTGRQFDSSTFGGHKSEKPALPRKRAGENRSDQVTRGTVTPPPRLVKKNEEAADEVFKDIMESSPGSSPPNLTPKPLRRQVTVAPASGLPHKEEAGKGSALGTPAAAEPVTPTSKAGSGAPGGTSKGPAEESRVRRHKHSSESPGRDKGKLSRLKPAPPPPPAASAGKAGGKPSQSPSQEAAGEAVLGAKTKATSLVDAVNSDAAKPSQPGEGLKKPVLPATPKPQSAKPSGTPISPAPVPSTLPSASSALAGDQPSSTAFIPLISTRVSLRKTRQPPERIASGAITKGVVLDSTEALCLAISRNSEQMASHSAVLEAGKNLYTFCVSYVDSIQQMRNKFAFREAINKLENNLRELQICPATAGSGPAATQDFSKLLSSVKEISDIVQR
T28 sequence (Q02750 whole entry): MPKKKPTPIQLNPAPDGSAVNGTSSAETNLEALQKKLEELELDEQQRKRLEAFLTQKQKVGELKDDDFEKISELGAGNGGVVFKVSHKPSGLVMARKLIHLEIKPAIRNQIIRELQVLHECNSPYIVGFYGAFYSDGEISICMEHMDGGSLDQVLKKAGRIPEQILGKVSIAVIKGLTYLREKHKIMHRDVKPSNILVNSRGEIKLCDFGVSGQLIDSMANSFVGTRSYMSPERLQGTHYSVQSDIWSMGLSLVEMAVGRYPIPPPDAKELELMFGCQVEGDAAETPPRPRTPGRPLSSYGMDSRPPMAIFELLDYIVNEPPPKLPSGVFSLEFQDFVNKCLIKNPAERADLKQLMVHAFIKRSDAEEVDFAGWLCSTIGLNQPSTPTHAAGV
T25 sequence (P24723 whole entry): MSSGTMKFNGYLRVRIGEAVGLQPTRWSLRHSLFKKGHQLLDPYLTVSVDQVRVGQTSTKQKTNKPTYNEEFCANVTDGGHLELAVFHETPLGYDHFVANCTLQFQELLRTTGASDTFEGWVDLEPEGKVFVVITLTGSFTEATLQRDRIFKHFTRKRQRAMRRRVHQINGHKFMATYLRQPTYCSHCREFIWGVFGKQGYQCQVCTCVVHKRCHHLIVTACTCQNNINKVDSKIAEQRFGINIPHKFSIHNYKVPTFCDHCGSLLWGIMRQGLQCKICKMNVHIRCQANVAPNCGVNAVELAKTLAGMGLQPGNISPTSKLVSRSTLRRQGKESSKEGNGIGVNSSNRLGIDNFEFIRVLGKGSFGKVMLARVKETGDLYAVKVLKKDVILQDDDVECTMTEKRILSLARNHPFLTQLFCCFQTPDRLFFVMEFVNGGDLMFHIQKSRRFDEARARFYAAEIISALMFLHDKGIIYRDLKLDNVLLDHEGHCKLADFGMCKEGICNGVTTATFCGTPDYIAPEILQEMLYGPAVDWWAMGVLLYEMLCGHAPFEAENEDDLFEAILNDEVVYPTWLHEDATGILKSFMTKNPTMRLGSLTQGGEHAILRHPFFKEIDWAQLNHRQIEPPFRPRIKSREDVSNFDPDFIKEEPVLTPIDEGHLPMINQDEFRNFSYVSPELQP

## C=CC(=O)N1CCC[C@@H](n2nc(-c3ccc(OCc4cccc(C)n4)c(Cl)c3)c3c(N)ncnc32)C1 [CHMFL-EGFR-26]
[1]
  remaining binding at 1 µM: 98%
[2]
  remaining binding at 1 µM: 100%
[3]
  % control: 99%
[4]
  remaining binding at 1 µM: 100%
[5]
  remaining binding at 1 µM: 80%
[6]
  remaining binding at 1 µM: 3.6%
[7]
  EC50: 50 nM
[8]
  remaining binding at 1 µM: 100%
[9]
  remaining binding at 1 µM: 78%
[10]
  remaining binding at 1 µM: 100%
[11]
  remaining binding at 1 µM: 13%
[12]
  remaining binding at 1 µM: 100%
[13]
  S score (1): 0.02
[14]
  remaining binding at 1 µM: 59%
[15]
  remaining binding at 1 µM: 96%
[16]
  remaining binding at 1 µM: 27%
[17]
  remaining binding at 1 µM: 100%
[18]
  remaining binding at 1 µM: 100%
[19]
  remaining binding at 1 µM: 81%
[20]
  remaining binding at 1 µM: 93%
[21]
  remaining binding at 1 µM: 100%
[22]
  remaining binding at 1 µM: 94%
[23]
  remaining binding at 1 µM: 100%
[24]
  remaining binding at 1 µM: 67%
[25]
  remaining binding at 1 µM: 65%
[26]
  remaining binding at 1 µM: 28%
[27]
  remaining binding at 1 µM: 2.8%
[28]
  remaining binding at 1 µM: 70%
[29]
  remaining binding at 1 µM: 89%
[30]
  IC50: 30.6 nM
[31]
  IC50: 38.9 nM
[32]
  IC50: 131 nM
[33]
  IC50: 16.3 nM
[34]
  IC50: 3.9 nM
[35]
  IC50: 5.39 nM
[36]
  IC50: 15.9 nM
[37]
  remaining binding at 1 µM: 100%
